US20250161236A1, “THYMOQUINONE AND BLACK SEED COMPOSITIONS FOR TREATING NEUROENDOCRINE CANCER IN COMBINATION WITH IMMUNOTHERAPY” (Novatek Pharmaceuticals, Inc., priority 2023, published 2025)
Each block holds one molecule with its values, some of them ahead of it.

How the values were obtained:
[1] = system: breast cancer cells; conditions: cited from earlier work
[2] = system: BON-1 cells; experiment: Cell viability (MTT) assay, BON-1 cells; format: cell-based, human; conditions: 72 hrs
Experimental: (§1) TQ activity was evaluated in two human pancreatic neuroendocrine tumor (pNEN) cell lines: (1) BON-1 cells, established from a lymph node metastasis of a pNET (Evers et al. 1991, Gastroenterology. 101, 303-311); and (2) QGP-1 cells, established from primary somatostatin producing pNET (Kaku et al. 1980, Gan. 71, 596-601). […] See Vandamme et al. 2015, J. Mol. Endocrinol. 54, 137-147.
(§2) About 5000 Bon-1 or 5000 QGP-1 cells were grown in 96-well plates overnight. On the following day, the cells were exposed to the indicated concentrations of TQ for 72 hrs. At the end of the treatment period, a standard MTT assay was performed to measure cell proliferation and conversely, in the presence of TQ, the reduction in cell viability The values represent 6 replicates per dose from three independent experiments.

[3] = system: Bon-1 (or QGP-1) cells; experiment: Colony formation assay; format: cell-based, human; conditions: 2.5 uM or 12.5 uM TQ 72 hrs, then 12 days drug free; p<0.01
Experimental: About 500 Bon-1 (or QGP-1) cells were seeded in 6-well plates in triplicate and allowed to attach overnight. On the following day, cells were treated with 2.5 uM or 12.5 uM TQ (or control) for 72 hrs. After treatment, cells were replenished with drug free media for 12 days and subjected to 0.5% crystal violet staining. Bar diagrams (FIG. 1B) show the number of colonies at the indicated TQ concentration.

[4] = system: QGP-1 cells; experiment: Cell viability (MTT) assay, QGP-1 cells; format: cell-based, human; conditions: 72 hrs
Experimental: as §1, §2

[5] = system: pancreatic ductal adenocarcinoma tumor models; experiment: TQ inhibitory action in pancreatic ductal adenocarcinoma tumor models; format: cell-based
[6] = system: PARP cleavage in BON-1 cells; experiment: Western blotting for cleaved PARP; format: cell-based, human; conditions: 3 uM or 6 uM TQ, 72 h
Experimental: (§3) About 30,000 BON-1 cells were grown in triplicate in 6 well plates overnight. The next day cells were exposed to 3 uM or 6 uM TQ (or control) for 72 h followed by Annexin V FITC apoptosis analysis. See, e.g., Demchenko 2012, Exp. Oncol. 34, 263-268. In addition, BON-1 cells grown and treated under similar experimental conditions were evaluated by Western blotting for the presence of cleaved PARP-a marker of apoptosis. See, e.g., Chaitanya et al. 2010, Cell Comm. Signal. 8, 31.

[7] = system: BON-1 cells; experiment: Annexin V FITC apoptosis analysis; format: cell-based, human; conditions: 3 uM or 6 uM TQ, 72 h
Experimental: as §3

[8] = system: patients with refractory poorly differentiated NEC; conditions: cited from earlier work
[9] = system: patients with refractory high grade (G3) NENs; conditions: cited from earlier work
[10] = system: refractory NEC patients; conditions: high-grade NEC group of 21 patients; cited from earlier work

Molecule: CCCCCCCCCOc1c(CCCC(=O)O)cc(-c2ccc(C(=O)O)cc2)cc1CCCC(=O)O [CNBDA]
inhibitory effects against breast cancer cells [1]: significant inhibitory effects

IC50 [5]: high uM range
Molecule: CC1=CC(=O)C(C(C)C)=CC1=O [TQ, Thymoquinone]
IC50 (cell viability) [2]: low uM range
long term growth in colony formation assay [3]: suppressed long term growth
IC50 (cell viability) [4]: low uM range
PARP cleavage product (western blot) [6]: dose dependent accumulation of the PARP cleavage product
apoptosis (Annexin V-FITC staining, flow cytometry) [7]: induced significant apoptosis

Molecule: nivolumab: anti-PD-1 antibody
ORR ([8]; at 8 weeks): 7.2%
OS [8]: 7.2 months
PFS [8]: 1.8 months

Molecule: pembrolizumab: anti-PD1 antibody
objective response rate (ORR) [9]: 5%

B1: spartalizumab: single agent ICPI in a phase II study in refractory NEC (antibody, chains of the INN, looked up, V domains shown)
VH: EVQLVQSGAEVKKPGESLRISCKGSGYTFTTYWMHWVRQATGQGLEWMGNIYPGTGGSNFDEKFKNRVTITADKSTSTAYMELSSLRSEDTAVYYCTRWTTGTGAYWGQGTTVTVSS
VL: EIVLTQSPATLSLSPGERATLSCKSSQSLLDSGNQKNFLTWYQQKPGQAPRLLIYWASTRESGVPSRFSGSGSGTDFTFTISSLEAEDAATYYCQNDYSYPYTFGQGTKVEIK
ORR [10]: 4.8%
OS [10]: 6.8 months
PFS [10]: 1.8 months
